Test results reported in patent US6054437A, “Method for inducing death of neoplastic cells using piperazine derivatives” (Hitachi Chemical Research Center, Inc., priority 1997, dated 2000).
Values after ≈ are worked out from the molar mass of the structure shown. Read-outs that look alike come from different tables or passages of the source.

How the values were obtained:
[1] = system: thiol protease, especially calcium-activated neutral protease (CANP); conditions: cited from earlier work
[2] = system: KB-3 (sensitive cells); assay: Drug accumulation assay ([3H]-vinblastine), sensitive cells; assay type: cell-based, human; conditions: KB-3, control (vinblastine alone)
Protocol: (§1) 1. Drug Accumulation Assays
(§2) where the effect of NCO-700 on the uptake of radioactive (^3 H)-vinblastine, an anticancer drug, is measured in cultured cancer cells, that are both drug-resistant and drug-sensitive (Reference 3).
(§3) In the first two in vitro assays, the drug accumulation assay and the cell survival assay, a human pharyngeal carcinoma cell line (KB-V-1) which is highly resistant to anticancer drugs was used. This cell line was developed by Drs. Ira Pastan and Michael Gottesman of the National Cancer Institute, by step-wise selection in colchicine of drug-resistant cells. The control cancer cell line (KB-3), from which the resistant cell lines were derived, is sensitive to anticancer drugs. The resistant KB-V-1 cell line is approximately 275 times more resistant to vinblastine than the sensitive KB-3 line and has a greatly amplified mdr gene which generates the observed resistance.
Measurement of [^3 H]-vinblastine accumulation was performed by the methods developed in the laboratory of Drs. Gottesman and Pastan (Fojo et al., Cancer Res. 45:3002-3007, 1985). […] After an additional 30 min, the medium was removed, the plates were washed three times in ice-cold phosphate-buffered saline, the cells were detached with trypsin, and radioactivity determined by scintillation counting.

[3] = system: KB-3 (sensitive); assay: Cell survival assay with vinblastine, sensitive cells; assay type: cell-based, human; conditions: Homo sapiens, read-out: vinblastine to kill 50% of cells
Protocol: (§4) where the effect of NCO-700 to enhance cancer cell killing by vinblastine was measured.
as §3
(§5) The cell survival experiments shown above were performed by plating KB-3 (sensitive) and KB-V-1 (resistant) cells in 32 mm well plastic dishes at a cell density of 300-500 cells per well. Vinblastine and NCO-700 were added 16 hours after the initial cell plating. After 10 days of incubation at 37°, cell colonies were stained and counted.

[4] = system: KB-V-1 (resistant cells); assay: Drug accumulation assay ([3H]-vinblastine), resistant cells; assay type: cell-based, human
Protocol: as §1, §2
as §3, with “drugs.” for “drugs. The resistant KB-V-1 cell line is approximately 275 times more resistant to vinblastine than the sensitive KB-3 line and has a greatly amplified mdr gene which generates the observed resistance.”
Measurement of [^3 H]-vinblastine accumulation was performed by the methods developed in the laboratory of Drs. […] In this method, KB-V-1 and KB-3 cells were plated in 10% fetal bovine serum at a density of 3×10^5 cells per well in 24-well Costar plates. The next day, the growth medium was replaced with Dulbecco's modified Eagle's medium with or without (control cells) 20 μM NCO-700. After ten minutes, the medium was removed and replaced with assay medium (0.5 ml) containing 0.1 μCi, (13 pmol) [^3 H]-vinblastine in the presence or absence of 20 μM NCO-700. After an additional 30 min, the medium was removed, the plates were washed three times in ice-cold phosphate-buffered saline, the cells were detached with trypsin, and radioactivity determined by scintillation counting.

[5] = system: KB-V-1 (resistant); assay: Cell survival assay with vinblastine, resistant cells; assay type: cell-based, human; conditions: Homo sapiens
Protocol: as §4, §3, §5

[6] = system: KB-V-1 (resistant); conditions: cited from earlier work
[7] = in vivo; cited from earlier work

Question: For `CCOC(=O)[C@H]1O[C@@H]1C(=O)N[C@@H](CC(C)C)C(=O)NCCC(C)C` [EST], which “thiol protease inhibitory activity” value [1] is on record?
Answer: thiol protease inhibitory activity, especially calcium-activated neutral protease (CANP) inhibitory activity

Question: Which vinblastine accumulation [2] does the source give for `CC[C@]1(O)C[C@@H]2CN(CCc3c([nH]c4ccccc34)[C@@](C(=O)OC)(c3cc4c(cc3OC)N(C)[C@H]3[C@@](O)(C(=O)OC)[C@H](OC(C)=O)[C@]5(CC)C=CCN6CC[C@]43[C@@H]65)C2)C1` [vinblastine, reference compound] here?
Answer: 2.99 ± 0.12 pmole vinblastine/mg protein

Question: What about the IC50 [3] of the same compound?
Answer: 3.2 ng/mL (≈ 0.00395 µM)

Question: And the vinblastine accumulation ([4]; KB-V-1, control (vinblastine alone))?
Answer: 0.29 ± 0.03 pmole vinblastine/mg protein

Question: And the “accumulation of vinblastine (in words)” value ([4]; drug-resistant cell line)?
Answer: severely restricted

Question: What about the IC50 ([5]; KB-V1, read-out: level of vinblastine needed to kill 50% of the tumor cells) of the same compound?
Answer: 0.825 µg/mL (≈ 1.02 µM)

Question: What about the IC50 ([5]; KB-V1, read-out: vinblastine to kill 50% of cells) of the same compound?
Answer: 0.792 µg/mL (≈ 0.977 µM)

Question: What about the “resistance to vinblastine, KB-V-1 versus KB-3” value [6] of the same compound?
Answer: approximately 275 times

Question: And the side effects [7]?
Answer: inevitable side effects such as hair loss, weight loss, and liver and kidney damage
